This note sets out measurements from US20080234306A1, “N-Oxides of 4,5-Epoxy-Morphinanium Analogs” (Progenics Pharmaceuticals, Inc., priority 2006, published 2008).

For one data set, the target named is human μ-receptor (Homo sapiens, UniProt P35372). Nature of the data set: human μ-receptor model (binding, Ki). Particulars: read-out: % Inhibition at 1 × 10^−5 M.
Data set [1] has as its target T1, μ-opioid receptor (Cavia porcellus, UniProt A0ACM8Q262). The data set can be described thus: Evaluation of antagonist activity at the μ-opioid receptor, guinea pig ileum test (tissue model, responses to DAMGO). Particulars: for IC50: tissue model for antagonist activity. On the procedure: (§1) Evaluation for Agonist and Antagonist Activities at the […] Receptors in the Guinea Pig Ileum
(§2) Agonist/antagonist activity at the μ-opioid receptor was determined using the well known guinea pig ileum test. Briefly, an a section of ileum was placed in a stabilized solution in a tensed state. Transducers were used to measure changes in tension upon electrical stimulation to the tissue before and after challenge with a potential agonist/antagonist Using a control, constriction inhibition, and constriction inhibition cancellation, may be measured.

For data set [2], the system named is T2, μ-opioid receptor.
T2 construct: Responses to increasing concentrations of the compounds (% control response to DAMGO); other: compound 1.0E^−04 M; Responses to increasing concentrations of the compounds (% control response to DAMGO); other: compound 1.0E^−08 M; other: compound 3.0E^−08 M; Responses to increasing concentrations of the com
The data set can be described thus: Evaluation of agonist activity at the μ-opioid receptor, guinea pig ileum test. On the procedure:
as §1, §2

Data set [3] has as its target T1, μ-opioid receptor. Nature of the data set: Evaluation of agonist activity at the μ-opioid receptor, guinea pig ileum test. The method, then:
as §1, §2

Setting [4] is: guinea pig, read-out: Responses to DAMGO (1.0E−07 M) in the presence of increasing concentrations of the compounds (% control response).

The structures appear in SMILES notation.

Chain of human μ-receptor (P35372 whole entry): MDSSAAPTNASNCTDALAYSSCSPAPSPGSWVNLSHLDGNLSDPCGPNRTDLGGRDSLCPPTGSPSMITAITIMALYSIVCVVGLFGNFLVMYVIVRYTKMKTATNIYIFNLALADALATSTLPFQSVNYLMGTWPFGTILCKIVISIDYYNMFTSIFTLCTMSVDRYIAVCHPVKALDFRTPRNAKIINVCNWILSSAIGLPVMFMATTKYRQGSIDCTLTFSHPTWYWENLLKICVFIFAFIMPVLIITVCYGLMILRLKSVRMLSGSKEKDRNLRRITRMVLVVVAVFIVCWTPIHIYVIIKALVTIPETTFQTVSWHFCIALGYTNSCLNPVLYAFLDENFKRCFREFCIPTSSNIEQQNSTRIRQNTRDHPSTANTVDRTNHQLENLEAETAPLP
T1 sequence (A0ACM8Q262 1-400): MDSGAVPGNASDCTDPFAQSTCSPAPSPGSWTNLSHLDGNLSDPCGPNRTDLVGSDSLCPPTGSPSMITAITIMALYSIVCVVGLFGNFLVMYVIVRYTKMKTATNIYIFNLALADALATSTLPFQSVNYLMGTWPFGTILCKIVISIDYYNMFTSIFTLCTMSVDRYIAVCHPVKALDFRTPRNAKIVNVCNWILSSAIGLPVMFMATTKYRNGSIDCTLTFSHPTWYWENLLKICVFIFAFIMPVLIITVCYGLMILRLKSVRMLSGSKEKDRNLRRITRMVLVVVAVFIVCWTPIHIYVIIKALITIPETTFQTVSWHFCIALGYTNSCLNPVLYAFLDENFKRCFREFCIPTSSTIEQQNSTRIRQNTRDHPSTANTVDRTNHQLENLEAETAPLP

A word on the inhibition: it is the drop in the measured response relative to a control, in per cent. Regarding `CC1C[C@@]2(O)[C@H]3Cc4ccc(O)c5c4[C@@]2(CC[N+]3([O-])CC2CC2)[C@@H](O5)C1=O` (stereo partly drawn) [Compound C0030, (S)-17-Cyclopropylmethyl-4,5α-epoxy-3,14-dihydroxy-7-methyl-morphinan-6-one N-oxide], the inhibition at 10 µM at human μ-receptor stood at 67%.

One may read the IC50 as the concentration that inhibits the measured activity by half. A low value points to higher potency. At μ-opioid receptor [1], `C=C1CC[C@@]2(O)[C@H]3Cc4ccc(O)c5c4[C@@]2(CC[N+]3([O-])CC2CC2)[C@H]1O5` (stereo partly drawn) [Compound C0002] displayed an IC50 greater than 100000 nM. The inhibition at 10 µM on human μ-receptor came out at 94%.

As to `O=C1CC[C@@]2(O)[C@H]3Cc4ccc(O)c5c4[C@@]2(CC[N+]3([O-])CC2CC2)[C@H]1O5` (stereo partly drawn) [Compound C0001, (S)-17-Cyclopropylmethyl-4,5α-epoxy-3,14-hydroxy-morphinan-6-one N-oxide], the “Responses to increasing concentrations of the compounds (% control response to DAMGO)” value in the data set with μ-opioid receptor [2] (compound 1.0E^−04 M) is reported as 0%. Moreover, in the data set on μ-opioid receptor [2] (compound 1.0E^−05 M), the “Responses to increasing concentrations of the compounds (% control response to DAMGO)” value is on record as 0%. Moreover, the “Responses to increasing concentrations of the compounds (% control response to DAMGO)” value with μ-opioid receptor [2] (compound 1.0E^−06 M) is reported as 0%. Moreover, in the data set on μ-opioid receptor [2] (compound 1.0E^−07 M), the “Responses to increasing concentrations of the compounds (% control response to DAMGO)” value is recorded as 0%. In addition, the “Responses to increasing concentrations of the compounds (% control response to DAMGO)” value in the data set on μ-opioid receptor [2] (compound 1.0E^−08 M) was 0%. The “Responses to increasing concentrations of the compounds (% control response to DAMGO)” value with μ-opioid receptor [2] (compound 3.0E^−05 M) turned out to be 0%. For the same molecule, in the data set on μ-opioid receptor [2] (compound 3.0E^−06 M), the “Responses to increasing concentrations of the compounds (% control response to DAMGO)” value was found to be 0%. Besides, the “Responses to increasing concentrations of the compounds (% control response to DAMGO)” value in the data set on μ-opioid receptor [2] (compound 3.0E^−07 M) is reported as 0%. In addition, the “Responses to increasing concentrations of the compounds (% control response to DAMGO)” value with μ-opioid receptor [2] (compound 3.0E^−08 M) came to 0%. Besides, in the data set with μ-opioid receptor [2] (concentration of 1.0×10^−4 M, versus DAMGO), the agonistic activity result was “No agonistic activity”. Besides, on μ-opioid receptor [1] (setting [4]), the remaining activity at 0.01 µM was 100%, the remaining activity at 0.03 µM was determined as 91%, the remaining activity at 0.1 µM was 80% and the remaining activity at 0.3 µM turned out to be 62%. At μ-opioid receptor [1] (setting [4]), the remaining activity at 1 µM was determined as 36%, the remaining activity at 3 µM was determined as 23%, the remaining activity at 10 µM worked out at 16% and the remaining activity at 30 µM amounted to 16%. In addition, the remaining activity at 100 µM at μ-opioid receptor [1] (setting [4]) was 16%. The same molecule yielded an IC50 against μ-opioid receptor [1] of 560 nM. Besides, on human μ-receptor, the inhibition at 10 µM came out at 96%.

Broadly, the melting point is the temperature, or range, at which the solid turns liquid. Molecule `[O-][N+]1(CC2CC2)CC[C@]23c4c5ccc(O)c4O[C@H]2[C@@H](O)CC[C@@]3(OCCCc2ccccc2)[C@H]1C5` (stereo partly drawn) returned a melting point of 155 to 159 °C.

Take `[O-][N+]1(CC2CC2)CC[C@]23c4c5ccc(O)c4O[C@H]2[C@@H](Cn2ccnc2)CC[C@@]3(O)[C@H]1C5` (stereo partly drawn) [Compound C0018, 17-Cyclopropylmethyl-4,5α-epoxy-3,14-dihydroxy-6α-(1H-imidazol-1-yl)methyl morphinan N-oxide]: at human μ-receptor, the inhibition at 10 µM worked out at 89%.

Turning to `[O-][N+]1(CC2CC2)CC[C@]23c4c5ccc(O)c4O[C@H]2[C@@H](CO)CC[C@@]3(O)[C@H]1C5` (stereo partly drawn) [Compound C0021, 17-cyclopropylmethyl-4,5α-epoxy-3,14-dihydroxy-6α-hydroxymethyl morphinan N-oxide], the inhibition at 10 µM at human μ-receptor came out at 95%.

With `C[C@@H](NC(=O)[C@@H](N)Cc1ccc(O)cc1)C(=O)NCC(=O)N(C)[C@@H](Cc1ccccc1)C(=O)NCCO` [DAMGO, D-Ala^2,N-Me-Phe^4,Gly^5-ol-enkephalin, reference compound], the “Response + Naloxone (1.0E^−07 M)” value on μ-opioid receptor [3] (after highest compound concentration, + naloxone 1.0E^−07 M) worked out at 4%. Besides, the activation at 1 µM at μ-opioid receptor [3] (compound 1.0E^−06 M, read-out: Responses to increasing concentrations of the compounds (% control response to DAMGO)) came out at 103%. Besides, the activation at 0.1 µM at μ-opioid receptor [3] (compound 1.0E^−07 M, read-out: Responses to increasing concentrations of the compounds (% control response to DAMGO)) is 96%. Also, on μ-opioid receptor [3] (compound 1.0E^−08 M, read-out: Responses to increasing concentrations of the compounds (% control response to DAMGO)), the activation at 0.01 µM is 57%. Moreover, at μ-opioid receptor [3] (compound 1.0E−09 M, read-out: Responses to increasing concentrations of the compounds (% control response to DAMGO)), the activation at 0.001 µM was 9%.

On to `C=C1CC[C@@]2(OCCCc3ccccc3)[C@H]3Cc4ccc(O)c5c4[C@@]2(CC[N+]3([O-])CC2CC2)[C@H]1O5.O=C(O)C(F)(F)F` (stereo partly drawn), for which the melting point was 182 °C (dec.).

On to `[O-][N+]1(CC2CC2)CC[C@]23c4c5ccc(O)c4O[C@H]2CCC[C@@]3(O)[C@H]1C5` (stereo partly drawn) [Compound C0023, 17-Cyclopropylmethyl-4,5α-epoxy-3,14-dihydroxymorphinan-N-oxide], for which, at human μ-receptor, the inhibition at 10 µM was found to be 101%.

Take `Oc1ccc2c3c1O[C@H]1[C@@H](O)CC[C@@]4(O)[C@@H](C2)[N+](O)(CC2CC2)CC[C@]314` (stereo partly drawn) [Compound C0003, (S)-17-Cyclopropylmethyl-4,5α-epoxy-morphinan-3,6α,14-triol N-oxide]: the inhibition at 10 µM on human μ-receptor came to 100%.

The molecule `O=C1CC[C@H]2[C@H]3Cc4ccc(O)c5c4[C@@]2(CC[N+]3([O-])CC2CC2)[C@H]1O5` (stereo partly drawn) displayed a melting point of 209 to 211 °C.
